Data published in ChEMBL document CHEMBL1201862, “PubChem BioAssay data set” (2004).
Active and inactive are the calls of the source.

Tests used:
[1] = target: Tyrosyl-DNA phosphodiesterase 2 (Homo sapiens, UniProt O95551); experiment: potency against TDP2 phosphodiesterase activity – biochemical, epi absorbance, IC50, dose response (AID 743297)
[2] = target: LIM domain kinase 1 (Homo sapiens, UniProt P53667); experiment: Navigating the Kinome. Panel member name: LIMK1; assay type: functional
[3] = target: Serine/threonine-protein kinase Chk1 (Homo sapiens, UniProt O14757); assay type: functional;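 also: measured as one member of a kinome-wide kinase profiling panel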
Chain of Serine/threonine-protein kinase Chk1 (O14757 whole entry): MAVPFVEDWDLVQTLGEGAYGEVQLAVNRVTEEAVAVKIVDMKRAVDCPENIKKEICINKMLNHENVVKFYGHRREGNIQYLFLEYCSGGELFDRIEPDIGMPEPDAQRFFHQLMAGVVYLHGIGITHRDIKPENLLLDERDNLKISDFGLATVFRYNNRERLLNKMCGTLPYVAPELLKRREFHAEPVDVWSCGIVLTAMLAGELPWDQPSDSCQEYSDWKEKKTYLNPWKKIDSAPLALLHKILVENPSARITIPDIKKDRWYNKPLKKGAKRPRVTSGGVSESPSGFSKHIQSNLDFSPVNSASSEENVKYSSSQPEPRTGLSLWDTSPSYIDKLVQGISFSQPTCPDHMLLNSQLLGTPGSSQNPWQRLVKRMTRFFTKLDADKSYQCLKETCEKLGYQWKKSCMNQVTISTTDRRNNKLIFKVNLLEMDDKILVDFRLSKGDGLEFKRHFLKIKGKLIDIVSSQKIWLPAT

[4] = target: Serine/threonine-protein kinase Nek2 (Homo sapiens, UniProt P51955); assay type: functional
Chain of Serine/threonine-protein kinase Nek2 (P51955 whole entry): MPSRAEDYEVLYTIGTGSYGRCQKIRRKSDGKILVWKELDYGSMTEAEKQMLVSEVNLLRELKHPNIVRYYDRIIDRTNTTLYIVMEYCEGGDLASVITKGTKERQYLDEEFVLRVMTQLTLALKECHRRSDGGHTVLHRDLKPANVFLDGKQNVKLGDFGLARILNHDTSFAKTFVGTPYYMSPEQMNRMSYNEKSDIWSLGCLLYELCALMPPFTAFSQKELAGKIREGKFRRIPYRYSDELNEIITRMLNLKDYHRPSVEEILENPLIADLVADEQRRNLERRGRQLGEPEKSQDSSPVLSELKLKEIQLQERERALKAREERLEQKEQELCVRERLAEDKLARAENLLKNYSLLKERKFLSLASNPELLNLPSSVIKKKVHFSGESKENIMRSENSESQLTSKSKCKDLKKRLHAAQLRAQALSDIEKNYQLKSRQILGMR

[5] = target: Rho-associated protein kinase 2 (Homo sapiens, UniProt O75116); assay type: functional
Chain of Rho-associated protein kinase 2 (O75116 whole entry): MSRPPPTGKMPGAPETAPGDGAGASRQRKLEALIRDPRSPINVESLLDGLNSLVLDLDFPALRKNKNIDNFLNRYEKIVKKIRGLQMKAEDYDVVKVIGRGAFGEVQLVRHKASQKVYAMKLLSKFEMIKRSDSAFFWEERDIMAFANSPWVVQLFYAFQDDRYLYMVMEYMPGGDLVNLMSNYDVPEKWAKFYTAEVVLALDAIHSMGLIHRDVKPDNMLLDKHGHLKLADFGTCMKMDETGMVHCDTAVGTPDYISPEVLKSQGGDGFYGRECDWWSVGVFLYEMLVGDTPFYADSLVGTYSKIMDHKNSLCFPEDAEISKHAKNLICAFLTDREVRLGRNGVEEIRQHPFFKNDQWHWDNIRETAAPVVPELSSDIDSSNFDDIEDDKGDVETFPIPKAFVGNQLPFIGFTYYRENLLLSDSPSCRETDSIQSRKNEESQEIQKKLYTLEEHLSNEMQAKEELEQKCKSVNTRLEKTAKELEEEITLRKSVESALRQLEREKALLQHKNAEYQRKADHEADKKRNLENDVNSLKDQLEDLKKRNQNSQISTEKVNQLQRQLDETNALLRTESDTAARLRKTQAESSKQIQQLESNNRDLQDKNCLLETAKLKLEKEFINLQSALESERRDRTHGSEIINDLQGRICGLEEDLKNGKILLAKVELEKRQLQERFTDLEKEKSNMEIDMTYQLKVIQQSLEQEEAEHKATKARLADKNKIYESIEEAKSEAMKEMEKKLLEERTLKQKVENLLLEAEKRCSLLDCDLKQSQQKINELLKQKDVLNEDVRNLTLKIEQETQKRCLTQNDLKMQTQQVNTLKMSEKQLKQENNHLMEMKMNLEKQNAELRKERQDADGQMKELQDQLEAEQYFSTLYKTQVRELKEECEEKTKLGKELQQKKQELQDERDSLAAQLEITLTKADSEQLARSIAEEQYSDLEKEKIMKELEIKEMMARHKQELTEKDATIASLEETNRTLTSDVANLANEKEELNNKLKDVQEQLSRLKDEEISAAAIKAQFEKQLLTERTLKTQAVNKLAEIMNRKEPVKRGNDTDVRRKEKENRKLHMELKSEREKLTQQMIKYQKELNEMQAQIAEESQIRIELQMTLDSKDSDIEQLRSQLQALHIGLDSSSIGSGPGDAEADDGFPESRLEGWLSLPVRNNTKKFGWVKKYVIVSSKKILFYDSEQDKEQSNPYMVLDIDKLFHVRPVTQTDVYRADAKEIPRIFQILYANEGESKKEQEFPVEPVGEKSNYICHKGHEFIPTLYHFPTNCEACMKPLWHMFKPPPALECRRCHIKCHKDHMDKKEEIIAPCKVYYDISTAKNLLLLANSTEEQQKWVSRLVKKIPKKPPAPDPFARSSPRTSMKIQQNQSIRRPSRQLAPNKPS

[6] = target: Mast/stem cell growth factor receptor Kit (Homo sapiens, UniProt P10721); assay type: functional;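 also: KIT entry within a kinase panel assay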
[7] = target: Mitogen-activated protein kinase 10 (Homo sapiens, UniProt P53779); experiment: Navigating the Kinome. Panel member name: MAPK10; assay type: functional
Chain of Mitogen-activated protein kinase 10 (P53779 whole entry): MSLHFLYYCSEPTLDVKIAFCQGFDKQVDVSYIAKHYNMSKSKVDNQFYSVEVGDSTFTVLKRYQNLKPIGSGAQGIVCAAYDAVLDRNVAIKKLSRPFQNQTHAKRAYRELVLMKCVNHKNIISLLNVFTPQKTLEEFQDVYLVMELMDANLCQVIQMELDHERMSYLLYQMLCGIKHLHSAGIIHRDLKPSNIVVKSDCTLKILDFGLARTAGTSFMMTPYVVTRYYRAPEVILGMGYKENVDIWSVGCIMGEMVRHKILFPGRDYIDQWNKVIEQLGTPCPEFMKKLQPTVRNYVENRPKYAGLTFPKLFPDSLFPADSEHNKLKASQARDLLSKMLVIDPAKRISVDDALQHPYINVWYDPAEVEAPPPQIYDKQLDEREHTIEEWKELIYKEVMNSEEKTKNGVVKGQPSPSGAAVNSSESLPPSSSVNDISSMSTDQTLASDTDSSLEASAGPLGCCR

[8] = system: Streptococcus sp. 'group A'; experiment: Streptococcus pyogenes SK(-)GAS viability under kanamycin – luminescence, BacTiterGlo, confirmation, counter-screen for streptokinase expression inhibitor project, dose response (AID 1900); assay type: functional, organism-based
[9] = target: Beta-galactosidase (Escherichia coli, UniProt Q8VNN2); experiment: detection-enzyme interference by beta-gal modulators – biochemical, E. coli enzyme, set 3, artefact control for CCR6 antagonist project, dose response (AID 504712); assay type: functional
Chain of Beta-galactosidase (Q8VNN2 whole entry): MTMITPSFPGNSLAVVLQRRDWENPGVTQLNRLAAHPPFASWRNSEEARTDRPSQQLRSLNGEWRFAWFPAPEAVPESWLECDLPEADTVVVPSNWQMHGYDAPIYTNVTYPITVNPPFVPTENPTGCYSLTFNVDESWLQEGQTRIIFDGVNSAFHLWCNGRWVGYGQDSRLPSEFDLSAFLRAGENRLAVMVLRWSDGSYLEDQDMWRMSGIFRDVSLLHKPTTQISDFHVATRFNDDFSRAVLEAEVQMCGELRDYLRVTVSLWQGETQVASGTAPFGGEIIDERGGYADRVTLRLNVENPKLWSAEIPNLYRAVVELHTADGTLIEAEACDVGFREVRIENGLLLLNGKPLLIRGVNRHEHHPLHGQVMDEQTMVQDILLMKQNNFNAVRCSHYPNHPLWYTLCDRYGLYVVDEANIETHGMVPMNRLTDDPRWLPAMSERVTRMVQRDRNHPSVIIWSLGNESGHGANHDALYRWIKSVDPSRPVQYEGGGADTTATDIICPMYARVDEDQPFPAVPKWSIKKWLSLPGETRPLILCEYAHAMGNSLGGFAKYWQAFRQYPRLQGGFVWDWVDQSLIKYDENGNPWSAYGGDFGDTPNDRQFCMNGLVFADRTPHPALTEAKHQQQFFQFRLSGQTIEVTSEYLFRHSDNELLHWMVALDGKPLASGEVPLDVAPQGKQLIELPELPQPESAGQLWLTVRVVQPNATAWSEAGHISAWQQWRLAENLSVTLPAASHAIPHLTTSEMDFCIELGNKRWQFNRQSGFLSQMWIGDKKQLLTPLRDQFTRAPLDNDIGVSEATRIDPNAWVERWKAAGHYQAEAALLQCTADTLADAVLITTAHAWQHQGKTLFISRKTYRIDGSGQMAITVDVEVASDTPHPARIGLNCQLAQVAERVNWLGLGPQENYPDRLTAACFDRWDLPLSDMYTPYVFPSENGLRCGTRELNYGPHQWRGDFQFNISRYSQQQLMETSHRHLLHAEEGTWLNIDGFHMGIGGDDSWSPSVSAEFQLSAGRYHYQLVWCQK

[10] = Intein inhibitors as potential Tuberculosis drugs, a cytotoxicity screen. [Related pubchem assays (depositor defined):AID2221, AID2223, AID434968, AID435010, AID449749, AID449750, AID489010]; assay type: functional
[11] = target: T1, Hexokinase HKDC1 (Homo sapiens, UniProt Q2TB90); experiment: inhibition of HKDC1 glucose phosphorylation – biochemical, W721R variant, dose response (AID 504729); assay type: functional
T1 sequence (Q2TB90 whole entry): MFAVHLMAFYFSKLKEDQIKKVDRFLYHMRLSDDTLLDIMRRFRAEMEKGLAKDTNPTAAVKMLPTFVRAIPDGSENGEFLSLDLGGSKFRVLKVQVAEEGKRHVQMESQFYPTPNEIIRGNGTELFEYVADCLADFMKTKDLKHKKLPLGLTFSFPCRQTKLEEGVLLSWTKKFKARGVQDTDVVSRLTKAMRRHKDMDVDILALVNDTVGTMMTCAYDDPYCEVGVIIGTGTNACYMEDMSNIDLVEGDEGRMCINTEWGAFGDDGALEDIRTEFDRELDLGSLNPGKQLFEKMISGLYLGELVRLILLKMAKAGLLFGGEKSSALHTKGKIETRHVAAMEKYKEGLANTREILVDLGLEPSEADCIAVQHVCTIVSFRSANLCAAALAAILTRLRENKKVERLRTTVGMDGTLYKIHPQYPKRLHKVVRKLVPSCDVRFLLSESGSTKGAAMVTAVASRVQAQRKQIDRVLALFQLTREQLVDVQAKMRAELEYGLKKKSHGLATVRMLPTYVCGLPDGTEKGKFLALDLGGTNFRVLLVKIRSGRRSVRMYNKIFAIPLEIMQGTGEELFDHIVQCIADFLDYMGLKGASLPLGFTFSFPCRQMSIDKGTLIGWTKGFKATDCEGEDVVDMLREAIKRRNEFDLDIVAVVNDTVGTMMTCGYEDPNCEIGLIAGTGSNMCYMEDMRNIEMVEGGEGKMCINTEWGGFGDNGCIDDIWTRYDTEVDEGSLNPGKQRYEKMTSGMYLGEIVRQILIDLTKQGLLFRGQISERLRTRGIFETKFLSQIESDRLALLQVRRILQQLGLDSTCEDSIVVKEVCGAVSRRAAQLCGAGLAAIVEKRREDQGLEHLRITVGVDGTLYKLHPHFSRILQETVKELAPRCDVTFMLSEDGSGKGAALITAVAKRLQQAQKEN

[12] = target: Dual specificity tyrosine-phosphorylation-regulated kinase 1A (Rattus norvegicus, UniProt Q63470); assay type: biochemical, Homo sapiens
[13] = target: Mitochondrial peptide methionine sulfoxide reductase (Bos taurus, UniProt P54149); assay type: functional;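 also: absorbance read-out, biochemical high-throughput dose-response screen for MsrA inhibitors, confirmatory; recombinant bovine MsrA coupled to E. coli TrxB with NADPH and selenocystamine; potency is for inhibitors of MsrA activity on DMSO substrate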
Chain of Mitochondrial peptide methionine sulfoxide reductase (P54149 whole entry, the tested form may be a part): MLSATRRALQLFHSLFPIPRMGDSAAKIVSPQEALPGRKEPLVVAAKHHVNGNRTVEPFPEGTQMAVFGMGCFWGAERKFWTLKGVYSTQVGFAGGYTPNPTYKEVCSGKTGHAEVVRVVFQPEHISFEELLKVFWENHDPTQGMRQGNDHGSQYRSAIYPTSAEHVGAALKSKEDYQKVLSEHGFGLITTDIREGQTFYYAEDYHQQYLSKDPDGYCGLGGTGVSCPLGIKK

[14] = blockers of HIV-1 envelope-mediated cell-cell fusion – cherry-pick, dose response (AID 652057); assay type: functional, cell-based
[15] = viability loss in CEM21 cells – cell-based, CellTiter-Glo luminescence, cherry-picked, cytotoxicity control for viral fusion inhibitor project, dose response (AID 652042); assay type: functional;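 also: potency for signal decrease meaning cytotoxicity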
[16] = blockers of HIV-1 ZM109 envelope-driven cell-cell fusion – HeLa effector, CEM target cells, luciferase, cherry-pick, dose response (AID 652058); assay type: functional, cell-based;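 also: luciferase signal from HIV-1 Env mediated cell-cell fusion of effector and target cells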
[17] = system: BJ; experiment: BJ-TERT fibroblast viability loss – cell-based, RAS-independent, luminescence, dose response (AID 1933); assay type: functional; details: Homo sapiens
[18] = system: BJ; experiment: cells; assay type: functional, cell-based; details: Homo sapiens
[19] = M. tuberculosis H37Rv growth inhibitors, H37Rv strain (AID 1626); assay type: functional
[20] = system: BJ; experiment: BJ-TERT-LT-ST fibroblast viability loss – cell-based, RAS-independent, luminescence, dose response (AID 1935); assay type: functional; details: Homo sapiens;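 also: BJ fibroblasts immortalized with TERT plus LT and ST oncogenes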
[21] = DRD fibroblast viability loss – cell-based, non-viral oncogenic, luminescence, dose response (AID 1934); assay type: functional; details: Homo sapiens
[22] = system: P388/ADR; experiment: cells; assay type: functional; details: Mus musculus
[23] = system: P388; experiment: cells; assay type: functional; details: Mus musculus
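For CC50 in this document: cells exposed to compound for 72 hours before luminescence readout.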

Chain of Tyrosyl-DNA phosphodiesterase 2 (O95551 whole entry, the tested form may be a part): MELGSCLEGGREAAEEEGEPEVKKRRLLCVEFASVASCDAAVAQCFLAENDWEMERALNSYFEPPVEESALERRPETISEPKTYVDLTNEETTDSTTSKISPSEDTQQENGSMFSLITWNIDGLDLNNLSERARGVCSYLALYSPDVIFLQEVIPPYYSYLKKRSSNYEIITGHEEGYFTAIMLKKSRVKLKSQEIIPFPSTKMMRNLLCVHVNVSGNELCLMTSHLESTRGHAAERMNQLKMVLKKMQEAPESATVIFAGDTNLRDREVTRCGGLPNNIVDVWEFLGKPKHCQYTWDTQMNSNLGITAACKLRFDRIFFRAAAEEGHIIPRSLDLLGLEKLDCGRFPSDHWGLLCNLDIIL
Chain of LIM domain kinase 1 (P53667 whole entry, the tested form may be a part): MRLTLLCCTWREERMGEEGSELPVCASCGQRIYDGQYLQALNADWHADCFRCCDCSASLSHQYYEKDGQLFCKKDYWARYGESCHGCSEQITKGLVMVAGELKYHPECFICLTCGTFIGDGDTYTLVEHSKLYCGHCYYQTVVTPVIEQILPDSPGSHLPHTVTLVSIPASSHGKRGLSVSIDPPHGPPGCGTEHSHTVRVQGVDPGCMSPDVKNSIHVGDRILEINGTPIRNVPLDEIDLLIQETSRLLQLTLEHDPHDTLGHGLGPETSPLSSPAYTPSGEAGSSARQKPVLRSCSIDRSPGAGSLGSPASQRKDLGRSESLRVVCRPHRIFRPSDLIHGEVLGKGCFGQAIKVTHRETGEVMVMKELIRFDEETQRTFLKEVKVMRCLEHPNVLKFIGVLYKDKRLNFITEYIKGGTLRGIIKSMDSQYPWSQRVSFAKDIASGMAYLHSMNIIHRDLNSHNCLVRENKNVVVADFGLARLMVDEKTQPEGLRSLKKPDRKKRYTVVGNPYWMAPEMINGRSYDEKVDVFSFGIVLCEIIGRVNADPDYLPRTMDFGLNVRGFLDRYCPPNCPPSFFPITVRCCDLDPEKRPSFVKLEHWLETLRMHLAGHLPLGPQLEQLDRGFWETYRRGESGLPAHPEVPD

## O=C(Cc1ccccc1)NC1(O)C(=O)c2ccccc2C1=O
[1]
  IC50: 13.2 µM (inactive)

## O=C(Nc1cccc(C(F)(F)F)n1)Nc1ccnc2cc(OC(F)F)ccc12
[2]
  Ki: > 3.16 µM (inactive)
[3]
  Ki: > 3.16 µM (inactive)
[4]
  Ki: > 3.16 µM (inactive)

## CCC1CC(NS(=O)(=O)C2CC2)CC1c1ncc2cnc3[nH]ccc3n12 (stereo not drawn)
[5]
  Ki: 0.0126 µM (active)
[6]
  Ki: > 6.31 µM (inactive)
[7]
  Ki: > 3.16 µM (inactive)

## Cc1cc(C)c(S(=O)(=O)/N=C2\C=C(Nc3ccc(C(=O)O)cc3)C(=O)c3ccccc32)c(C)c1
[8]
  EC50: 0.561 µM (active)
[9]
  IC50: 36.1 µM (active)
[10]
  CC50: 7.89 µM (active)
[11]
  IC50: 15.2 µM (active)
[12]
  AC50: 1.8 µM (active)
[13]
  IC50: 44.8 µM (inactive)
[14]
  AC50: 12.4 µM (active)
[15]
  AC50: 9.3 µM (active)
[16]
  AC50: 6.51 µM (active)

## COC(=O)c1nc(-c2ccc3c(n2)C(=O)C(=N)C(OC)=C3O)c(N)c(-c2ccc(OC)c(OC)c2O)c1C
[17]
  EC50: 5.91 µM (active)
[18]
  EC50: 4.56 µM (active)
[19]
  IC50: > 100 µM (active)
[20]
  EC50: 10.3 µM (active)
[21]
  EC50: 13.9 µM (active)
[22]
  GI50: 1.4 µM (inactive)
[23]
  GI50: 1.49 µM (inactive)
